Molecular target: T1, Bile acid receptor (Homo sapiens, UniProt Q96RI1)
T1 sequence (Q96RI1 whole entry): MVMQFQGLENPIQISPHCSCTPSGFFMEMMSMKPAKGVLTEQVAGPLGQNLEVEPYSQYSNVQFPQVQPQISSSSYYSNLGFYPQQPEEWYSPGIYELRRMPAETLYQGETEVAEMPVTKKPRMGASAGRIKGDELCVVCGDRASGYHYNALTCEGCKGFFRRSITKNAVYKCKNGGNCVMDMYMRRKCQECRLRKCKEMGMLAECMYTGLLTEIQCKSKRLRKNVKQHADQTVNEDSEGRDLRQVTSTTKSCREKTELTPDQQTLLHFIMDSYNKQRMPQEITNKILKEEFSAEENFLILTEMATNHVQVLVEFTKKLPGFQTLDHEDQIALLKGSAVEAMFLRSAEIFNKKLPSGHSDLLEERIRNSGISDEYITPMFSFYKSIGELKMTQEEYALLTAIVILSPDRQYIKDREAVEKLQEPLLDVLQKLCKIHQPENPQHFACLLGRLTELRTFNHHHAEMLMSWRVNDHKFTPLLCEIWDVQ
Assay: FRET Activity Assay: The human FXRalpha LBD was expressed in E. coli strain BL21(DE3) as an N-terminally GST tagged fusion protein. The DNA encoding the FXR ligand binding domain was cloned into vector pDEST15 (Invitrogen). Expression was under control of an IPTG inducible T7 promoter. The amino acid boundaries of the ligand binding domain were amino acids 187-472 of Database entry NM_005123 (RefSeq). Expression and purification of the FXR-LBD: An overnight preculture of a transformed E. coli strain was diluted 1:20 in LB-Ampicillin medium and grown at 30° C. to an optical density of =0.4-0.6. Gene expression was then induced by addition of 0.5 mM IPTG. Cells were incubated an additional 6 h at 30° C., 180 rpm. Cells were collected by centrifugation (7000×g, 7 min, rt). Per liter of original cell culture, cells were resuspended in 10 mL lysis buffer (50 mM Glucose, 50 mM Tris pH 7.9, 1 mM EDTA and 4 mg/mL lysozyme) and left on ice for 30 min. Cells were then subjected to sonication and cell debris removed via centrifugation (22000×g, 30 min, 4° C.). Per 10 mL of supernatant 0.5 mL prewashed Glutathione 4B sepharose slurry (Qiagen) was added and the suspension kept slowly rotating for 1 h at 4° C. Glutathione 4B sepharose beads were pelleted by centrifugation (2000× g, 15 sec, 4° C.) and washed twice in wash buffer (25 mM Tris, 50 mM KCl, 4 mM MgCl2 and IM NaCl). […]

| Structure (SMILES) | IC50 [nM] |
| --- | --- |
| O=C(O)c1cc(F)c2nc(C3(O)C4COCC3CC(OCc3c(-c5c(Cl)cccc5Cl)noc3C3CC3)C4)sc2c1 (configuration not stated) | 19 |
| O=C(O)c1ccc2nc(C3(O)C4COCC3CC(OCc3c(-c5c(Cl)cccc5Cl)noc3C3CC3)C4)sc2c1 (configuration not stated) | 30 |

— ChEMBL document CHEMBL5726907, “FXR (NR1H4) modulating compounds” (2018)
